Assay results from PMC7932537, “Quantitative profiling of protease specificity” (PLoS Computational Biology, 2021).

Columns and labels:
[1] = molecular target: MMP-9 (Homo sapiens, UniProt P14780); assay: K(obs) of individual phage substrates (set of 1369); format: biochemical; conditions: MMP9
[2] = molecular target: T1, MMP-2 (Homo sapiens, UniProt P08253); assay: as above; format: biochemical; conditions: MMP2
T1 sequence (P08253 110-660): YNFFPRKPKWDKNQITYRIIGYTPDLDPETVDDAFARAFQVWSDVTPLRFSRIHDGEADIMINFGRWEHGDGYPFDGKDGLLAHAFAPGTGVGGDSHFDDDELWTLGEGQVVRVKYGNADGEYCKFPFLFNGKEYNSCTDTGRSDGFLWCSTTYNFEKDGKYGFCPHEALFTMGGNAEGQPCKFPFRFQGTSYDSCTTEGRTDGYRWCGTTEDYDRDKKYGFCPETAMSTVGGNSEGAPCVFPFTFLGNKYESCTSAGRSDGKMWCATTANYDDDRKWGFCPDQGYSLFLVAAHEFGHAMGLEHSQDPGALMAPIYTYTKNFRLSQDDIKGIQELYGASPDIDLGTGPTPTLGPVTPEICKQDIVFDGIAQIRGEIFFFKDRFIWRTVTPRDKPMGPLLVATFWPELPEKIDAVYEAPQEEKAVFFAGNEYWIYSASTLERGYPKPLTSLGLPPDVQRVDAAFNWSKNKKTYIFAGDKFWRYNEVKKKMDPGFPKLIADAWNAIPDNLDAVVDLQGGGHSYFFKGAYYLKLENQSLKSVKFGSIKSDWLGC

[3] = test system: MMP-2; assay: Substrate phage display with NGS: relative probability (RP) of P3-P1' tetramer clusters; format: biochemical, human; conditions: MMP2;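 also: ratio of tetramer probability after protease selection to that in naive phage library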
[4] = individual phage substrates, set of 1369 peptides, hyphen in sequence marks cleavage position
[5] = individual phage substrates, set of 1369 peptides, cleavage position marked by hyphen in sequence
[6] = RP of the P3-P1' tetramer contained in the substrate (substrate phage display with NGS)
[7] = individual phage substrate of the set of 1369 peptides, dash in the sequence marks the cleavage position
[8] = individual phage substrate of the set of 1369 peptides, cleavage position marked by '-'
[9] = RP of the P3-P1' tetramer contained in the substrate

MMP-9, sequence (P14780 94-707): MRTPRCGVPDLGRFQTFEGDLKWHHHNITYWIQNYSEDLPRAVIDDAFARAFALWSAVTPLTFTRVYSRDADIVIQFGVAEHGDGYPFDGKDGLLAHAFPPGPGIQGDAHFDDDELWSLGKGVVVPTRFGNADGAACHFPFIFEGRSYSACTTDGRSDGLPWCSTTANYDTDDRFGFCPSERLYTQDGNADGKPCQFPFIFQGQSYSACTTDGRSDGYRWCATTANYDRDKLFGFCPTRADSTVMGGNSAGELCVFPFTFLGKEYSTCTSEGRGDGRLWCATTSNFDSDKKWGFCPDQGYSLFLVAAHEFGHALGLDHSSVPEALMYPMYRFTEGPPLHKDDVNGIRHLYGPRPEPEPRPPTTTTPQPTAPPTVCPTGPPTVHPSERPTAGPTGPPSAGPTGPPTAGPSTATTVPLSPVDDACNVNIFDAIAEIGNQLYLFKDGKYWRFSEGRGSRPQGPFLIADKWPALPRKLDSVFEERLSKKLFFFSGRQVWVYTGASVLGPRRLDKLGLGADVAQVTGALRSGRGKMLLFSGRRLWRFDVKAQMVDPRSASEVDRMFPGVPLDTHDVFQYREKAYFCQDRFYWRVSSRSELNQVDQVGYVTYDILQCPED

GEVRG-LRTAS
Kobs [1, 4]: 7386.83 M⁻¹ s⁻¹ | Kobs [2, 5]: 12792.1 M⁻¹ s⁻¹ | relative probability (RP) [3, 6]: 29.092

GFAWS-LHTAS
Kobs [1, 7]: 2916.17 M⁻¹ s⁻¹ | Kobs [2, 8]: 654.784 M⁻¹ s⁻¹ | relative probability (RP) [3, 9]: 7.006

GFFLH-LTTAS
Kobs [1, 4]: 0 M⁻¹ s⁻¹ | Kobs [2, 5]: 0 M⁻¹ s⁻¹ | relative probability (RP) [3, 6]: 0.8093

GFPLM-LTASG
Kobs [1, 7]: 12792.1 M⁻¹ s⁻¹ | Kobs [2, 8]: 9740.44 M⁻¹ s⁻¹ | relative probability (RP) [3, 9]: 25.0435

GFPLM-YATAS
Kobs [1, 7]: 1763.55 M⁻¹ s⁻¹ | Kobs [2, 8]: 142.481 M⁻¹ s⁻¹ | relative probability (RP) [3, 9]: 17.2027

GFPQS-LMTAS
Kobs [1, 4]: 12792.1 M⁻¹ s⁻¹ | Kobs [2, 5]: 10866.7 M⁻¹ s⁻¹ | relative probability (RP) [3, 6]: 33.5105

GFSAN-LKTAS
Kobs [1, 7]: 484.315 M⁻¹ s⁻¹ | Kobs [2, 8]: 5667.28 M⁻¹ s⁻¹ | relative probability (RP) [3, 9]: 23.7816

GFWSS-LRTAS
Kobs [1, 7]: 0 M⁻¹ s⁻¹ | Kobs [2, 8]: 5461.43 M⁻¹ s⁻¹ | relative probability (RP) [3, 9]: 16.6561

GGPFL-LKTAS
Kobs [1, 4]: 8321.48 M⁻¹ s⁻¹ | Kobs [2, 5]: 1513.13 M⁻¹ s⁻¹ | relative probability (RP) [3, 6]: 9.085

GGPIP-LWTAS
Kobs [1, 4]: 12792.1 M⁻¹ s⁻¹ | Kobs [2, 5]: 4763.33 M⁻¹ s⁻¹ | relative probability (RP) [3, 6]: 33.1236

GGPRS-LFTAS
Kobs [1, 7]: 12792.1 M⁻¹ s⁻¹ | Kobs [2, 8]: 12792.1 M⁻¹ s⁻¹ | relative probability (RP) [3, 9]: 33.3704

GGPSM-LTASG
Kobs [1, 4]: 12792.1 M⁻¹ s⁻¹ | Kobs [2, 5]: 12792.1 M⁻¹ s⁻¹ | relative probability (RP) [3, 6]: 33.0235

GGSGA-LRVRG
Kobs [1, 7]: 0 M⁻¹ s⁻¹ | Kobs [2, 8]: 1154.21 M⁻¹ s⁻¹ | relative probability (RP) [3, 9]: 13.4712

GGSGH-LLGMS
Kobs [1, 7]: 690.17 M⁻¹ s⁻¹ | Kobs [2, 8]: 2097.28 M⁻¹ s⁻¹ | relative probability (RP) [3, 9]: 1.458

GGSGM-LKLQP
Kobs [1, 4]: 0 M⁻¹ s⁻¹ | Kobs [2, 5]: 0 M⁻¹ s⁻¹ | relative probability (RP) [3, 6]: 1.312

GGSGN-LTMGS
Kobs [1, 4]: 0 M⁻¹ s⁻¹ | Kobs [2, 5]: 0 M⁻¹ s⁻¹ | relative probability (RP) [3, 6]: 12.7361

GGSGS-LVLRL
Kobs [1, 4]: 1030.73 M⁻¹ s⁻¹ | Kobs [2, 5]: 1196.62 M⁻¹ s⁻¹ | relative probability (RP) [3, 6]: 7.225

GGSGS-LVNLL
Kobs [1, 4]: 0 M⁻¹ s⁻¹ | Kobs [2, 5]: 0 M⁻¹ s⁻¹ | relative probability (RP) [3, 6]: 7.225

GGVSF-LLTAS
Kobs [1, 4]: 27.918 M⁻¹ s⁻¹ | Kobs [2, 5]: 1112.44 M⁻¹ s⁻¹ | relative probability (RP) [3, 6]: 5.918

GGYAG-LRTAS
Kobs [1, 7]: 0 M⁻¹ s⁻¹ | Kobs [2, 8]: 4082.43 M⁻¹ s⁻¹ | relative probability (RP) [3, 9]: 20.9112

GGYAN-LTTAS
Kobs [1, 4]: 0 M⁻¹ s⁻¹ | Kobs [2, 5]: 5269.78 M⁻¹ s⁻¹ | relative probability (RP) [3, 6]: 27.7486

GHARS-LKTAS
Kobs [1, 4]: 1239.69 M⁻¹ s⁻¹ | Kobs [2, 5]: 2916.17 M⁻¹ s⁻¹ | relative probability (RP) [3, 6]: 17.186

GHAYH-LTASG
Kobs [1, 7]: 4763.33 M⁻¹ s⁻¹ | Kobs [2, 8]: 3964.21 M⁻¹ s⁻¹ | relative probability (RP) [3, 9]: 15.3364

GHVRH-LLTAS
Kobs [1, 7]: 386.839 M⁻¹ s⁻¹ | Kobs [2, 8]: 2545.25 M⁻¹ s⁻¹ | relative probability (RP) [3, 9]: 25.4239

GHYHH-LMTAS
Kobs [1, 7]: 0 M⁻¹ s⁻¹ | Kobs [2, 8]: 0 M⁻¹ s⁻¹ | relative probability (RP) [3, 9]: 0

GIAHQ-LKTAS
Kobs [1, 4]: 201.585 M⁻¹ s⁻¹ | Kobs [2, 5]: 726.013 M⁻¹ s⁻¹ | relative probability (RP) [3, 6]: 4.1

GIFWH-LRTAS
Kobs [1, 4]: 0 M⁻¹ s⁻¹ | Kobs [2, 5]: 0 M⁻¹ s⁻¹ | relative probability (RP) [3, 6]: 0

GIPFF-MTTAS
Kobs [1, 4]: 3079.62 M⁻¹ s⁻¹ | Kobs [2, 5]: 0 M⁻¹ s⁻¹ | relative probability (RP) [3, 6]: 3.509

GIPRP-VMTAS
Kobs [1, 7]: 6131.32 M⁻¹ s⁻¹ | Kobs [2, 8]: 6688.74 M⁻¹ s⁻¹ | relative probability (RP) [3, 9]: 29.4989

GIPYH-LATAS
Kobs [1, 7]: 7015.91 M⁻¹ s⁻¹ | Kobs [2, 8]: 1816.46 M⁻¹ s⁻¹ | relative probability (RP) [3, 9]: 27.2418

GISFA-LTTAS
Kobs [1, 4]: 27.918 M⁻¹ s⁻¹ | Kobs [2, 5]: 0 M⁻¹ s⁻¹ | relative probability (RP) [3, 6]: 0.5631

GISQS-LITAS
Kobs [1, 4]: 0 M⁻¹ s⁻¹ | Kobs [2, 5]: 0 M⁻¹ s⁻¹ | relative probability (RP) [3, 6]: 5.003

GIVGM-LQTAS
Kobs [1, 7]: 323.705 M⁻¹ s⁻¹ | Kobs [2, 8]: 4613.14 M⁻¹ s⁻¹ | relative probability (RP) [3, 9]: 28.5913

GIVKH-LQTAS
Kobs [1, 4]: 836.403 M⁻¹ s⁻¹ | Kobs [2, 5]: 1711.63 M⁻¹ s⁻¹ | relative probability (RP) [3, 6]: 14.8595

GIVRY-LQTAS
Kobs [1, 7]: 3438.54 M⁻¹ s⁻¹ | Kobs [2, 8]: 4922.1 M⁻¹ s⁻¹ | relative probability (RP) [3, 9]: 18.3724
